These results are taken from PubChem BioAssay AID449753 (NMMLSC, 2010).

Activity calls are given as the source filed them.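 How the source made its calls: active means EC50 under 30000 nM from a falling dose curve whose fit quality and slope passed set checks; inactive means the rest.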

Test system in the first assay: not listed separately
Briefly: age-related ROS inhibitors in S. cerevisiae – DHE fluorescence, primary hits, dose response (AID 449753). The following applies: S. cerevisiae aged culture, superoxide DHE fluorescence, 7 d; at 30 µM (top of the series).
As for `O=C(Nc1ccc2nc3ccccc3nc2c1)c1ccccc1`, the percent response (superoxide), lower = inhibition was 57.7 (inactive).

With `CCc1nc(NC(C)(C)C)c2cnn(-c3ccccc3)c2n1`, the percent response (superoxide), lower = inhibition was 88 (inactive).

Turning to `C[C@]12CCC3C(CC[C@H]4C[C@@H](O)CC[C@]34C)C1CC[C@@H]2OC(=O)[C@H](N)CCCCN` (stereo partly specified), the percent response (superoxide), lower = inhibition was 71.9 (inactive).

For the molecule `C=CCOn1c(=O)c(-c2cccs2)[n+]([O-])c2ccccc21`, the percent response (superoxide), lower = inhibition is 104 (inactive).

On to `N#CCc1nn(-c2ccccc2)c2ncnc(N)c12`, for which the percent response (superoxide), lower = inhibition was 96.7 (inactive).

For the molecule `C#C[C@]1(O)[C@H](O)CC2C3CC[C@H]4C[C@@H](O)CC[C@]4(C)C3CC[C@@]21C` (stereo partly specified), the percent response (superoxide), lower = inhibition was 87.4 (inactive).

As to `O=C(OCc1c(F)cccc1Cl)c1cnc2ccccc2n1`, the percent response (superoxide), lower = inhibition was 117 (inactive).

For `O=C(/C=C/c1cccs1)NC(=S)NNC(=O)Cc1cccs1`, the percent response (superoxide), lower = inhibition is 121 (inactive).

Turning to `O=C(Nc1ccc2nc3ccccc3nc2c1)c1ccc(Br)cc1`, the percent response (superoxide), lower = inhibition was 105 (inactive).

As to `N#CC(c1nc2ccccc2nc1N1CCCC1)S(=O)(=O)c1ccccc1` (stereo unspecified), the percent response (superoxide), lower = inhibition was 98.7 (inactive).

As for `CN(C)CCNc1ncnc2c1cnn2-c1ccc(Cl)cc1`, the percent response (superoxide), lower = inhibition is 99.2 (inactive).

Consider `O=c1[nH]c(O)c(C=Nc2ccc(F)c(Cl)c2)c(=O)[nH]1`, for which the percent response (superoxide), lower = inhibition is 107 (inactive).

Turning to `CC(=O)O[C@H]1CCC2C3CC[C@H]4[C@@H](O)[C@H](O)CC[C@]4(C)C3CC[C@@]21C` (stereo partly specified), the percent response (superoxide), lower = inhibition is 90.2 (inactive).

For the molecule `O=C(O)c1cnc2ccccc2n1`, the percent response (superoxide), lower = inhibition is 114 (inactive).

In the case of `O=C(Nc1cccc(Cl)c1)Nc1ccc2nccnc2c1`, the percent response (superoxide), lower = inhibition is 87.1 (inactive).

For `COc1ccc2nc3ccccc3nc2c1NC(=O)c1ccccc1Cl`, the percent response (superoxide), lower = inhibition is 56.6 (inactive).

As for `CC(=O)[C@@]1(O)CCC2C3CC[C@H]4C[C@@H](O)CC[C@]4(C)C3CC[C@@]21C` (stereo partly specified), the percent response (superoxide), lower = inhibition is 129 (inactive).

As to `CC(C)OC(=O)CSc1nnc(-c2ccc(Cl)cc2Cl)o1`, the percent response (superoxide), lower = inhibition is 112 (inactive).

On to `O=C(/C=C/c1ccccc1)NC(=S)NNC(=O)Cc1cccs1`, for which the percent response (superoxide), lower = inhibition is 83 (inactive).

`C[C@]12CCC3C(CC[C@H]4C[C@@H](O)CC[C@]34C)[C@H]1CC[C@H]2O` (stereo partly specified): the percent response (superoxide), lower = inhibition is 64.7 (inactive).

`CCN(CC)C(=O)CSc1nnc(-c2cccc(OC)c2)o1`: the percent response (superoxide), lower = inhibition was 92.6 (inactive).

The next assay deals with S. cerevisiae aged culture, superoxide DHE fluorescence, 7 d. The assay is described as above.
Settings: not given
On to `CNc1ccc2nc3ccccc3[n+](C)c2c1`, for which the EC50 is 10.1 µM.

`C=CCSc1nnc(-c2ccc([N+](=O)[O-])cc2)o1`: the EC50 was 2.9 µM.

As to `[O-][n+]1c2ccccc2[n+]([O-])c2cc(O)ccc21`, the EC50 was 0.94 µM.

Take `OCC[n+]1c2ccccc2nc2ccc(N3CCOCC3)cc21`: the EC50 was 3.81 µM.

For the molecule `COc1ccc2c(c1)c1nnc(SC)nc1n2C`, the concentration giving a half-maximal response (EC50) was 3.23 µM.

Take `Cc1ccc(-c2nn(C(C)(C)C)c3ncnc(N)c23)cc1`: the EC50 is 3.03 µM.

As for `CNC(=O)c1cccc2nc3ccccc3nc12`, the EC50 is 14.5 µM.

For `C#CCSc1nnc(-c2ccc([N+](=O)[O-])cc2)o1`, the EC50 was 4.72 µM.

`Cn1c(O)c(C(=Nc2ccc(F)cc2)c2ccccc2Cl)c(=O)n(C)c1=O`: the EC50 is 3.14 µM (inactive).

In the case of `CC(C)OC(=O)c1ccc2nc3ccccc3nc2c1`, the EC50 was 16.7 µM.

`c1ccc2nc3ccccc3nc2c1`: the EC50 was 0.44 µM.

As for `C[C@]12CCC3C(CC[C@H]4C[C@H](O)CC[C@]34C)C1C[C@@H](CCCCl)[C@@H]2O` (stereo partly specified), the EC50 is 0.5 µM.

On to `C[C@]12CCC3C(CC[C@H]4C[C@H](O)CC[C@]34C)C1CCC2=O` (stereo partly specified), for which the EC50 was 0.63 µM.

In the case of `O=C1c2c(O)ccc(O)c2C(=O)c2c(NCCNCCO)ccc(NCCNCCO)c21`, the EC50 is 5.25 µM.

As to `COC(=O)c1cccc2nc3c(C(C)O)cccc3nc12` (stereo unspecified), the EC50 was 1.29 µM.

`CC(C)(C)Nc1ncnc2c1cnn2-c1ccccc1`: the EC50 is 0.47 µM.

With `C=C1C(O)[C@@H]2O[C@]3(CC[C@H](/C=C/C(C)[C@@H]4CC(C)=CC5(O[C@H](C[C@@](C)(O)C(=O)O)CCC5O)O4)O3)CC[C@H]2O[C@@H]1C(O)CC(C)[C@H]1OC2(CCCCO2)CCC1C` (stereo partly specified), the EC50 was 0.1 µM.

Turning to `CC(C)(C)n1nc(-c2ccc(F)cc2)c2c(N)ncnc21`, the EC50 was 5.17 µM.

For the molecule `Nc1cc2nc3ccccc3nc2cc1N`, the EC50 is 1.85 µM.

Regarding `COc1ccc2nc3ccccc3nc2c1N`, the EC50 was 0.66 µM.

For `CCC(=Nc1ccccc1O)C1=C(O)CC(c2ccccc2)CC1=O` (stereo unspecified), the EC50 is 1.63 µM.

With `COc1ccc2c3c(cccc13)N(C)N=C2C`, the EC50 is 7.91 µM.

Turning to `CC(C)(C)n1nc(-c2ccc(Cl)cc2)c2c(N)ncnc21`, the EC50 was 4.79 µM.

Turning to `FC(F)(F)c1nc2cc3nc4ccccc4[nH]c3cc2n1`, the EC50 is 0.21 µM.

Take `c1ccc2[nH]c3cc4ncnc4cc3nc2c1`: the EC50 is 0.04 µM.
